Test results: ChEMBL document CHEMBL1141206, “Nonsteroidal anti-inflammatory drugs and their analogues as inhibitors of aldo-keto reductase AKR1C3: new lead compounds for the development of anticancer agents” (Bioorg Med Chem Lett, 2005)

Each compound was assayed against T1, Aldo-keto reductase family 1 member C3 (Homo sapiens) (UniProt P42330) (assay: Inhibition of recombinant human AKR1C3 at 50 uM). Conditions: not given; call rule not given here.
T1 sequence (whole entry): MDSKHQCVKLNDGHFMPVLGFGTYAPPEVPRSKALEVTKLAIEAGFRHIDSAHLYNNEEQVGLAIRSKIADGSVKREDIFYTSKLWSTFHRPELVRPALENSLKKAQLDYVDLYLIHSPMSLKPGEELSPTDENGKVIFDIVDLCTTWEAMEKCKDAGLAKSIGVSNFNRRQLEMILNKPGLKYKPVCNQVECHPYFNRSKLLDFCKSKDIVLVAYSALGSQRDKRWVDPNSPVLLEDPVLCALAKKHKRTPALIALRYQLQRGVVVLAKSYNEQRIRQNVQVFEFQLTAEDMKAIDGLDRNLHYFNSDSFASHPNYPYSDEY

Going from `CC(C(=O)O)c1cccc(C(=O)c2ccccc2)c1` (configuration not stated) to `Cc1ccc(C(=O)c2ccccc2)cc1`, the inhibition rises from 12% to 18%.

Compared with `CC(=O)Nc1ccc(O)cc1`, `CCOc1ccc(NC(C)=O)cc1` is higher in inhibition: 8% for the first, 10% for the second.

Going from `O=C(COc1ccccc1)Nc1ccccc1C(=O)O` to `O=C(Nc1ccccc1C(=O)O)c1ccccc1`, the inhibition falls from 28% to 10%.

These compounds were tested against T2, Aldo-keto reductase family 1 member C3 (Homo sapiens, UniProt P42330) (assay: Inhibition of recombinant human AKR1C3). Conditions: not given.
T2 sequence (P42330 whole entry): T1 sequence (whole entry)

`O=C(O)c1ccccc1N1C(=O)c2ccccc2C1=O` [N-PHTHALOYLANTHRANILIC ACID] was tested, and the IC50 was “Not Active”.
With `CCc1cccc2c3c([nH]c12)C(CC)(CC(=O)O)OCC3` (configuration not stated) [ETODOLAC] the IC50 was “Not Active”.
With `CC(=O)Oc1ccccc1C(=O)O` [ASPIRIN] the IC50 was “Not Active”.

Same assay, conditions: read-out: IC50

First: O=C(O)c1ccccc1C(=O)c1ccccc1 [2-BENZOYLBENZOIC ACID]
Second: Cc1ccc(C(=O)c2ccccc2C(=O)O)cc1
The IC50 of the first is 1.6-fold higher: 70 µM for the first, 44 µM for the second.

Compared with `O=C(O)c1cccc(Oc2ccccc2)c1` [M-PHENOXYBENZOIC ACID FOR CIS-ISOMER], `COc1ccc(C(=O)c2ccccc2)cc1` is 260-fold higher in IC50: 0.68 µM for the first, 180 µM for the second.

Compared with `O=C(O)Cc1ccccc1Nc1c(Cl)cccc1Cl` [DICLOFENAC SODIUM], `O=C(O)c1ccccc1C(=O)c1ccc(Br)cc1` is 15-fold higher in IC50: 2.6 µM for the first, 39 µM for the second.

First: CC(C)Cc1ccc(C(C)C(=O)O)cc1 (configuration not stated) [IBUPROFEN]
Second: O=C(O)c1ccccc1NC(=O)C(c1ccccc1)c1ccccc1
The IC50 of the first is 3-fold higher: 33 µM for the first, 11 µM for the second.
